In US9345694B2, “Compounds for enhancing arginase activity and methods of using same” (Cornell Research Foundation, Inc., priority 2006, dated 2016):

What was measured:
[1] = system: myelin-associated glycoprotein (MAG) inhibition in P7 rat cerebellar neurons; assay: MAG inhibition analysis, neurite outgrowth of P7 rat cerebellar neurons on MAG-overexpressing CHO cells, post-treatment; type: cell-based; conditions: 10 nM and 40 nM, 24 h in culture, CHO-MAG vs control CHO cells
Experimental: Compounds were tested for their ability to overcome myelin-associated glycoprotein (MAG) inhibition in P7 rat cerebellar neurons.
In experiments performed in the Roman Giger laboratory at the University of Rochester School of Medicine and Dentistry, twelve compounds were tested, using the materials and methods described by Venkatesh, et al., J Neurosci.
The twelve compounds were tested in two different dilutions (10 nM and 40 nM final concentration).
MAG-overexpressing CHO cells and control CHO feeder layers were used in the assay. All experiments were done with Percoll purified P7 rat cerebellar neurons. The twelve compounds were tested in a “post-treatment” manner. Post-treatment refers to administering the compounds after the neurons were plated.
After 24 h in culture, cells were fixed and stained with TuJ1 (cells with neurites longer than 1 cell body diameter were quantified). Untreated cells (first column of FIGS. 11 and 12) and DMSO only (second column of FIGS. 11 and 12) were used as a negative controls. RHO-kinase inhibitor Y27632 (15 microM) (third column of FIGS. 11 and 12) was used as a positive control. All experiments have been repeated 3-5 times independently.
In FIGS. 11 and 12, there are two bars for each compound tested.

[2] = system: myelin-associated glycoprotein (MAG) inhibition in p5 rat cerebellar neurons; assay: MAG inhibition analysis, neurite outgrowth of p5 rat cerebellar neurons on MAG-expressing CHO cells, direct addition or priming; type: cell-based; conditions: priming overnight at 20 μM, then plated on MAG-expressing CHO cells
Experimental: Compounds were tested for their ability to overcome myelin-associated glycoprotein (MAG) inhibition in primary rat neurons. […] In a first experiment, the twelve compounds were tested for their ability to overcome inhibition by MAG in culture. The compounds were tested for their ability to inhibit neurite outgrowth of MAG-expressing CHO cells. Cerebellar neurons were cultured on MAG-expressing CHO cells and neurite length is compared to neurons growing on control CHO cells, not expressing MAG. The cells were assessed for their ability to overcome MAG inhibition when added directly to the cultures at a range of concentrations from 2-20 μM. Neurons were plated at a density of about 10,000 neurons per well of an 8-well culture dish containing a monolayer of either MAG-expressing or control CHO cells. The co-cultures were, incubated for 16-18 h and then immunostained for βIII tubulin. Neurite outgrowth was quantified as previously described (Mukhopadhyay et al., 1994). […] At least 400 neurons were measured in each assay and the experiment was carried out at least twice.

Arginase I protein [3] = assay: Western blotting and immunostaining for Arginase I protein in treated neurons; type: cell-based, rat; conditions: neurons treated at 20 μM for 18 hours
Experimental: FIG. 15. Western blot and immunostaining results for arginase I protein. Neurons were treated with, daidzein (20 μM), methoxyvone (5 μM) or lanzoprazole (20 μM) for 18 hours and were then lysed and subjected to gel electrophoresis, followed by western blotting and immunostaining for Arginase I protein. As a positive control, neurons were treated with 1 mM db cAMP.
In a second experiment, the twelve compounds were tested for their ability to upregulate arginase I protein. Neurons were treated with, daidzein (20 μM), methoxyvone (5 μM) or lanzoprazole (20 μM) for 18 hours and were then lysed and subjected to gel electrophoresis, followed by western blotting and immunostaining for Arginase I protein. As a positive control, neurons were treated with 1 mM db cAMP (FIG. 15). Db-cAMP was previously shown to increased Arginase I protein 3-fold as described by Cai, et a., Neuron. 2002 Aug. 15; 35(4):711-9.

Arginase I protein [4] = conditions: Cai et al., cited from earlier work

SMILES | effect on releasing MAG inhibition [1] | also measured
CC(=O)Nc1ccc(O)cc1 [Acetaminophen, reference compound] | no effect | 
COc1ccc(C[C@H]2NC[C@H](O)[C@H]2OC(C)=O)cc1 [Anisomycin, reference compound] | most promising | 
O=C(/C=C/c1ccc(O)c(O)c1)OCCc1ccccc1 [CAPE, Phenethyl caffeate] | no effect | 
O=c1c(-c2ccc(O)cc2)coc2cc(O)ccc12 [Daidzein] | no effect | ability to overcome inhibition by MAG (neurite outgrowth) [2]: overcome inhibition by MAG completely; Arginase I protein level (Arginase I protein [3]): up-regulated
CCCC(=O)Nc1ncnc2c1ncn2[C@@H]1O[C@@H]2COP(=O)(O)O[C@H]2[C@H]1OC(=O)CCC [Db-cAMP] |  | increase of Arginase I protein (Arginase I protein [4]; previously shown, Neuron 2002): 3 fold; Arginase I up-regulation (Arginase I protein [4]; shown previously, 2002): up-regulated
COc1ccc2c(c1)OCc1c-2oc2cc(OC)ccc12 [Dehydrovariabilin] | most promising | 
COc1cc(OC)c2c(=O)c(-c3ccc4c(c3)OCO4)coc2c1 [Derrustone] | no effect | 
COC(=O)Nc1nc2ccc(Sc3ccccc3)cc2[nH]1 [Fenbendazole, reference compound] | most promising | 
Cc1c(OCC(F)(F)F)ccnc1C[S+]([O-])c1nc2ccccc2[nH]1 (stereo not shown) [Lanzoprazole, Lansoprazole, reference compound] |  | ability to overcome inhibition by MAG (neurite outgrowth) [2]: overcome inhibition by MAG completely; Arginase I protein level (Arginase I protein [3]): up-regulated
Oc1cc(O)cc(/C=C/c2ccccc2)c1 [Pinosylvin] | most promising | 
COc1ccc(/C=C/c2cc(O)cc(O)c2)cc1 [Resveratol 4-methyl ether] | no effect | 
CC(=O)Oc1cc(OC(C)=O)c2c(c1)O[C@H](c1ccc(OC(C)=O)c(OC(C)=O)c1)[C@H](OC(C)=O)C2 [epicatechin pentaacetate, Epicatechin pentaacetate] | no effect | 
